Experimental data taken from publication PMC6925343 (ACS chemical biology, 2019).

Legend:
[1] = system: RANBP3 Ser58/Ser126 phosphorylation; experiment: RANBP3 Ser58/Ser126 phosphorylation in CSA treated HeLa cells, Western blot; format: cell-based; conditions: CSA 45 min, anti-pSer58/pSer126-RANBP3 antibody
[2] = system: SMAD2 localization in HeLa cells; conditions: CSA 45 min, n = 90 cells, three independent replicates

Cyclosporine A [CSA]
increase of Ser58/Ser126 phosphorylation of RANBP3 [1]: approximately 2 fold | total SMAD2 levels [2]: not changed
